According to article PMC10099813, “Stafiba: A STAT5‐Selective Small‐Molecule Inhibitor” (Chembiochem, 2022):

Tests used:
[1] = molecular target: T1, STAT5b (Homo sapiens, UniProt P51692); experiment: Competitive fluorescence polarization (FP) binding assay, STAT5b SH2 domain; conditions: for Ki / IC50: FP assay, 2 % DMSO (10 % DMSO for 10); for Ki: Ki calculated from IC50 (n=3) via published equation; for IC50: n=3; for selectivity for STAT5b over STAT1, STAT3, and STAT6: FP assays
T1 sequence (P51692 1-787): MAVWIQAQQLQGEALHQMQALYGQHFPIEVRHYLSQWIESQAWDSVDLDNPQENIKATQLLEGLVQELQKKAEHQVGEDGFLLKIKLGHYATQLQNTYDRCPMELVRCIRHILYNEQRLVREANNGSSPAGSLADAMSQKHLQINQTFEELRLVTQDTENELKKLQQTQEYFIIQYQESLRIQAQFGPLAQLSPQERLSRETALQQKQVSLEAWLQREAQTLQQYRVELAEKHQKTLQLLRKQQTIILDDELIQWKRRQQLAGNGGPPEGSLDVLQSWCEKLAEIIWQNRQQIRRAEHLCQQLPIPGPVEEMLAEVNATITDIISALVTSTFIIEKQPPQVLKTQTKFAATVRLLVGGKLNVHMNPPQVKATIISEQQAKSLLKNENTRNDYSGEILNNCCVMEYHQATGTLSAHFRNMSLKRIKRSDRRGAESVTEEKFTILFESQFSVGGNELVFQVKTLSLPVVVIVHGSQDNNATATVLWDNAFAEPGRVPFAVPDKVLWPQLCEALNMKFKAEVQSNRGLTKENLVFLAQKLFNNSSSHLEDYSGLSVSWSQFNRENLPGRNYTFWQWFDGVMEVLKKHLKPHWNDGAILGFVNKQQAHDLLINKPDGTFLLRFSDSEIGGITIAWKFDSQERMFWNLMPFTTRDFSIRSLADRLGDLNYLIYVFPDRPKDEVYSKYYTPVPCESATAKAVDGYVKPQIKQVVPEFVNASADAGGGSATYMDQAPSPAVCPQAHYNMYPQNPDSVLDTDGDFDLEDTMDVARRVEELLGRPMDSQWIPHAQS
Procedure: (§1) Fluorescence polarization assays: Competitive binding assays based on fluorescence polarization were carried out essentially as previously described.[[4a]] Unless stated otherwise, final concentrations of the buffer components were: 10 mM Tris (pH 8.0), 50 mM NaCl, 1 mM EDTA, 1 mM DTT, 0.1 % (v/v) Nonidet P‐40 substitute, and 2 % DMSO. Proteins were used at concentrations which reflect the Kd values of the interactions between the fluoropeptide and the protein preparations. Protein concentrations used for activity analysis of compound 5 were 91 nM for STAT1, 107 nM for STAT3, 28 nM for STAT4, 122 nM for STAT5a, 56 nM for STAT5b and 101 nM for STAT6. Protein concentrations used for activity analysis of AC‐4‐130 were 103 nM for STAT5a and 62 nM for STAT5b. […] Final concentration of all fluorescent‐labelled peptides was 10 nM. The following peptides were used in assays: 5‐carboxyfluorescein‐GpYDKPHVL for STAT1; 5‐carboxyfluorescein‐GpYLPQTV‐NH2 for STAT3; 5‐carboxyfluorescein‐GpYLPQNID for STAT4; 5‐carboxyfluorescein‐GpYLVLDKW for STAT5a/5b, and 5‐carboxyfluorescein‐GpYVPWQDLI for STAT6. Protein and test compounds were incubated for 1 h prior to addition of the fluorescein‐labeled peptide. Fluorescence polarization was measured after another 60 min using an Infinite F500 plate reader (Tecan). IC50 values were converted to Ki‐values using the published equation.[13]

[2] = molecular target: T2, STAT6 (Homo sapiens, UniProt P42226); experiment: Competitive fluorescence polarization (FP) binding assay, STAT6
T2 sequence (P42226 1-847): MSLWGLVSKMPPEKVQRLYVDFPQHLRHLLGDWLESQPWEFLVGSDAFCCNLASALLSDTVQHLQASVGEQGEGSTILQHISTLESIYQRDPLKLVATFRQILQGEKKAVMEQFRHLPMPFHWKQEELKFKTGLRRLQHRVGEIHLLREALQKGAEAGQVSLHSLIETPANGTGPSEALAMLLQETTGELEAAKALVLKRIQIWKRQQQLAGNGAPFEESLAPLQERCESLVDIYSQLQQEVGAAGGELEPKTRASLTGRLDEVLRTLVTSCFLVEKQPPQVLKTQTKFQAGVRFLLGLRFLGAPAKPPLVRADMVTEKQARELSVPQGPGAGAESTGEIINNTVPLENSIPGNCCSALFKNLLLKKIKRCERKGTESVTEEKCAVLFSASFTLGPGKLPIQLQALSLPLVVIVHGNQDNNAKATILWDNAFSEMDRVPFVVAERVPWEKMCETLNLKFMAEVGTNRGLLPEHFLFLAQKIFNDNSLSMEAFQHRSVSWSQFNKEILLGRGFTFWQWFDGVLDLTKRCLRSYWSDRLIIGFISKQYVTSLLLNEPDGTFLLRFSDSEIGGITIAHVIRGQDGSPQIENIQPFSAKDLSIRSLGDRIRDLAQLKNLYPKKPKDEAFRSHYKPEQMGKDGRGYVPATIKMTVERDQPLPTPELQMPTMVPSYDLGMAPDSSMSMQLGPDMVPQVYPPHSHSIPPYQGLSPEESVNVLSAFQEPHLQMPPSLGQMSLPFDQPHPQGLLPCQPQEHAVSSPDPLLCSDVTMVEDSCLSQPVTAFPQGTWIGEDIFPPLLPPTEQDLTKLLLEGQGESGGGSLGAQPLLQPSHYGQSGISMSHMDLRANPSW
Procedure: as §1

[3] = molecular target: STAT3 (Homo sapiens, UniProt P40763); experiment: Competitive fluorescence polarization (FP) binding assay, STAT3; conditions: 2 % DMSO for 5, 10 % DMSO for 10
Procedure: as §1

STAT3, sequence (P40763 whole entry, species assumed): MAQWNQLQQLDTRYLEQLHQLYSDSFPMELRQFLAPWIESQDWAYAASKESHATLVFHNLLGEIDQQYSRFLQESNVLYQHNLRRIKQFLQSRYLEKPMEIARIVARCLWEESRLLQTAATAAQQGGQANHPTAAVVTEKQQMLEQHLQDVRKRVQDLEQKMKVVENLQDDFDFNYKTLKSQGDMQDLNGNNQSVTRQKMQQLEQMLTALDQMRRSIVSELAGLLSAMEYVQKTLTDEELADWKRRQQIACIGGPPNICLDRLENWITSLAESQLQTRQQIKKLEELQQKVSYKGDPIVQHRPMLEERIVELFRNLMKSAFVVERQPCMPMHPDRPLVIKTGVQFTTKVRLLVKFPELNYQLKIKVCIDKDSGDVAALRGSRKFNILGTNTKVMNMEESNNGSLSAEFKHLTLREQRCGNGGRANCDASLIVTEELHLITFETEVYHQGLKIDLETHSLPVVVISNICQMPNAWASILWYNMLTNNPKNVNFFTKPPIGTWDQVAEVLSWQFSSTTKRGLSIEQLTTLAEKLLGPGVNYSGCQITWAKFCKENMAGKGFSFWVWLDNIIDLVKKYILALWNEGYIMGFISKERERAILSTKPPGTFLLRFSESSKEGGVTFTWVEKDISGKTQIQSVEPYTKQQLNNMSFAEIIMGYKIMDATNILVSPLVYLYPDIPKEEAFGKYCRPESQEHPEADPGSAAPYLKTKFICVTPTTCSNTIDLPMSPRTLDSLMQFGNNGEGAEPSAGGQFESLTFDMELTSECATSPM

activity compared with AC-4-130 in FP assay against the SH2 domain of STAT5b ([1]; Figure 5C) | IC50 ([2]; 10 % DMSO) | Ki ([2]; Ki calculated from IC50, 10 % DMSO) | SMILES | Ki [1] | IC50 [1] | selectivity for STAT5b over STAT1, STAT3, and STAT6 [1] | inhibition at 100 µM ([2]; 100 µM, 2 % DMSO) | inhibition at 100 µM [3]
 |  |  | O=C(CNc1ccc(C(=O)Nc2ccc(Oc3ccccc3)cc2)cc1)NCc1cc(OP(=O)(O)O)cc(OP(=O)(O)O)c1 [compound 5] | 1.5 ± 0.1 µM | 3.1 ± 0.3 µM | more than tenfold | 48 ± 1% | 33 ± 11%
substantially more active than AC‐4‐130 | 61.3 ± 2.7 µM | 30.1 ± 1.3 µM | O=C(CNc1ccc(C(=O)Nc2ccc(Oc3ccccc3)cc2)cc1)NCc1cc(C(F)(F)P(=O)(O)O)c(F)c(C(F)(F)P(=O)(O)O)c1 [compound 10] | 1.8 ± 0.1 µM | 3.7 ± 0.2 µM | 10–20 fold |  | 49 ± 3%
